Assays:
TLM1 cells [1] = assay: X-ray radiation in combination with compound, propidium iodide dead cells, ratio of corrected AUC; format: cell-based, canine; details: TLM1
MOPC315.BM cells = assay: Epoxomicin (EPX) in combination with compound 3, Annexin V/PI flow cytometry; format: cell-based, murine; details: MOPC315.BM (FIG. 1B), compound at 7.5 μM, 15 μM and 30 μM
Method: (§1) RPMI 8226 and MOPC315.BM cells were cultured in RPMI 1640 medium supplemented with L-glutamine, non-essential amino acids, 2-mercaptoethanol and 10% fetal calf serum.
(§2) Cells were seeded in 24-well culture plates at 150,000 cells/well/mL. […] Cells were treated with protease inhibitors for 24 and 48 hours before analysis for apoptosis and cell death by flow cytometry. The cells were centrifuged at 300×g for 5 minutes and washed with cold FACS buffer (PBS 1× with 2 mM EDTA and 0.5% BSA. Then the cells were resuspended in Annexin V binding buffer (BioLegend) at a concentration of 10^6 cells/mL, and 100 μL of each sample was transferred to a 5 mL FACS tube. 5 μL of Annexin V-FITC Ab (BioLegend) and 5 μL of propidium iodide (BioLegend) were added to each sample and incubated 15 min at RT. Finally, 400 μL of Annexin V binding buffer was added to each tube and the cells were analyzed using BD FACSCanto or BD Fortessa machines within an hour. Annexin+ but PI− cells were identified as apoptotic and Annexin+ PI+ as dead cells.

RPMI 8226 cells = assay: as above; format: cell-based, human; details: RPMI 8226 (FIG. 1A), compound at 7.5 μM, 15 μM and 30 μM
Method: as §1, §2

TLM1 cells [2] = assay: UV-C radiation in combination with compound, ratio of % propidium iodide labelled cells; format: cell-based, canine; details: TLM1
Method: Canine melanoma TLM-1 cells are maintained in DMEM medium supplemented with GlutaMAX™, 10% fetal bovine serum, 1× Hepes and 1% penicillin-streptomycin.
Plates were incubated at 37° C. and 5% CO2. […] 4 images per well were collected. Images were analyzed with Columbus software (Perkin Elmer). In this system we used predefined building blocks to measure different parameters on nuclei detected. We applied a threshold based on propidium iodide intensity in nuclei of controls to select and count dead cells. By dividing the number of dead cells by the number of nuclei detected we obtained the percentage of dead cells.

O=C(C[C@@H](Cc1ccc2ccccc2c1)n1cc(CNC(=O)c2ccc(F)cc2)nn1)NO [Compound 3, 4-Fluoro-N-[1-(R-2-hydroxycarbamoyl-1-naphthalen-2-ylmethyl-ethyl)-1H-[1,2,3]-triazol-4-ylmethyl]-benzamide]
Potency of X-ray radiations in combination with compound (in words) (TLM1 cells [1]): increase the potency
Cytotoxicity of epoxomicin in combination with compound (MOPC315.BM cells): increased
Cytotoxicity of epoxomicin in combination with compound (RPMI 8226 cells): increased
Potency of UV-C radiations in combination with compound (in words) (TLM1 cells [2]): increase the potency
